Each structure is given as a SMILES string. “Also recorded” adds a separate entry of the source.

What all share (type): physicochemical
A short description of series [1]: Test 1 stability data under 25° C. for 6 months (liquid chromatography). The settings on record: for Major peak: 25° C., in % (unit assumed); for chemical stability compared with crystal form I, crystal form II and the semihydrate crystal form: normal temperature and cold storage conditions. On the procedure: (§1) Liquid chromatography test conditions are: chromatographic column is Merck Purospher®STAR RP-18 endcapped 250×4.6 mm, 5 μm; mobile phase A: acetonitrile, mobile phase B: 4 ml phosphoric acid added in 1 L water, the pH is adjusted to 3.5 by triethylamine; detecting wavelength: 310 nm; flow rate: 1 ml/min; sample load: 10 μl; column temperature: 30° C., liquid chromatography conditions are shown in table 4:
(§2) The inventor has tested the chemical stability of the crystal form M and crystal form N under normal temperature, cold storage and freezing conditions and compared the chemical stability with crystal form I, crystal form II and semihydrate crystal form, see tests 1-3. In the tests, crystal form I, crystal form II and semihydrate crystal form are all prepared according to the method disclosed in patent document U.S. Pat. No. 7,932,273B2.

Series [2] can be described thus: Test 2 stability data under 5° C. for 6 months (liquid chromatography). Conditions: for Major peak: 5° C., in % (unit assumed); for storage stability: cold storage and freezing conditions. On the procedure: as §1, §2
Test 2 stability data under 5° C. for 6 months (see table 6)

The nature of series [3]: Test 3 stability data under −20° C. for 6 months (liquid chromatography). The settings on record: in % (unit assumed). On the procedure: as §1, §2
Test 3 stability data under −20° C. for 6 months (see table 7)

Series [4] in a line: Crystal form of samples after 6 months stability tests under different temperature. The settings on record: 6 months under different temperature.
Series [5] in a line: Test 4 stability of crystal form N in 95% ethanol solution (XRD). Conditions: stirred for 3, 4 and 5 hours. On the procedure:
In the following examples and tests, the powder X-ray diffractometer and the test conditions are: X-ray diffractomer model Rigaku D/max-2200 Cu target; operation method: scan rate 4°/min, scan width 0.01°.
Test 4 the stability in formulation of crystal form N
This indicate that the crystal form N is stable in the 95% ethanol solution, therefore, it has great stability in the related formulation processes.

As to `CCCCCCOC(=O)/N=C(/N)c1ccc(NCc2nc3cc(C(=O)N(CCC(=O)OCC)c4ccccn4)ccc3n2C)cc1.CS(=O)(=O)O` [Crystal form II, 3-[(2-{[4-(hexaoxycarbonylamino-imino-methyl)-phenylamino]-methyl}-1-methyl-1H-benzimidazole-5-carbonyl)-pyridine-2-yl-amino-]-ethyl propionate-mesylate], the Major peak in series [1] (0 month) is given as 99.646; in series [1] (1 month), 99.493; in series [1] (2 months), 99.408; in series [1] (3 months), 99.290; in series [1] (4 months), 99.069; in series [1] (5 months), 99.029. Also, the Major peak is listed as 98.911 in series [1] (6 months); 99.631 in series [2] (0 month); 99.630 in series [2] (1 month); 99.643 in series [2] (2 months); 99.640 in series [2] (3 months); 99.641 in series [2] (4 months). Also, the Major peak in series [2] (5 months) stood at 99.598; in series [2] (6 months), 99.592; in series [3] (1 month), 99.630; in series [3] (2 months) it was 99.633; in series [3] (3 months), 99.634; in series [3] (4 months), 99.630. Besides, the Major peak in series [3] (5 months) and in series [3] (6 months) was 99.632 each time.

Turning to `CCCCCCOC(=O)/N=C(/N)c1ccc(NCc2nc3cc(C(=O)N(CCC(=O)OCC)c4ccccn4)ccc3n2C)cc1.CS(=O)(=O)O` [Semihydrate crystal form, 3-[(2-{[4-(hexaoxycarbonylamino-imino-methyl)-phenylamino]-methyl}-1-methyl-1H-benzimidazole-5-carbonyl)-pyridine-2-yl-amino-]-ethyl propionate-mesylate], the Major peak in series [1] (0 month) is listed as 99.847; in series [1] (1 month) it was 99.707; in series [1] (2 months) it was 99.631; in series [1] (3 months), 99.587; in series [1] (4 months), 99.447; in series [1] (5 months), 99.334. Further, the Major peak in series [1] (6 months) was 99.254; in series [2] (0 month) it was 99.828; in series [2] (1 month) it was 99.827; in series [2] (2 months), 99.830; in series [2] (3 months), 99.826; in series [2] (4 months) it was 99.831. Further, the Major peak in series [2] (5 months) is 99.827; in series [2] (6 months), 99.832; in series [3] (1 month) it was 99.834; in series [3] (2 months), 99.833; in series [3] (3 months), 99.836; in series [3] (4 months), 99.839. Besides, the Major peak was determined as 99.840 in series [3] (5 months) and 99.836 in series [3] (6 months).

In the case of `CCCCCCOC(=O)/N=C(/N)c1ccc(NCc2nc3cc(C(=O)N(CCC(=O)OCC)c4ccccn4)ccc3n2C)cc1.CS(=O)(=O)O` [Crystal form N, 3-[(2-{[4-(hexaoxycarbonylamino-imino-methyl)-phenylamino]-methyl}-1-methyl-1H-benzimidazole-5-carbonyl)-pyridine-2-yl-amino-]-ethyl propionate-mesylate], the Major peak in series [1] (0 month) is 99.701; in series [1] (1 month), 99.631; in series [1] (2 months), 99.618; in series [1] (3 months) it was 99.601; in series [1] (4 months) it was 99.580; in series [1] (5 months), 99.572. In addition, the Major peak in series [1] (6 months) is listed as 99.536; in series [2] (0 month) it was 99.660; in series [2] (1 month), 99.659; in series [2] (2 months) it was 99.655; in series [2] (3 months), 99.652; in series [2] (4 months), 99.650. In addition, the Major peak is recorded as 99.650 in series [2] (5 months); 99.649 in series [2] (6 months); 99.723 in series [3] (1 month); 99.726 in series [3] (2 months); 99.734 in series [3] (3 months); 99.733 in series [3] (4 months). Also, the results for the Major peak in series [3] (5 months) and in series [3] (6 months) were 99.734 and 99.733, respectively. Also, in series [1], the “chemical stability compared with crystal form I, crystal form II and the semihydrate crystal form” value is given as “better chemical stability”. In addition, in series [2], the storage stability entry is “can be stored stable for a long time”. In addition, the “crystal form of samples after stability tests” value in series [4] is given as “not changed”. In series [5], the “stability in 95% ethanol solution (X-Ray powder diffractograms)” value is reported as “not changed within 5 hours; also recorded: very good stability”.

Consider `CCCCCCOC(=O)/N=C(/N)c1ccc(NCc2nc3cc(C(=O)N(CCC(=O)OCC)c4ccccn4)ccc3n2C)cc1.CS(=O)(=O)O` [Crystal form I, 3-[(2-{[4-(hexaoxycarbonylamino-imino-methyl)-phenylamino]-methyl}-1-methyl-1H-benzimidazole-5-carbonyl)-pyridine-2-yl-amino-]-ethyl propionate-mesylate], for which the Major peak in series [1] (0 month) is given as 99.690; in series [1] (1 month), 99.604; in series [1] (2 months), 99.574; in series [1] (3 months), 99.468; in series [1] (4 months) it was 99.308; in series [1] (5 months) it was 99.309. The Major peak in series [1] (6 months) is recorded as 99.220; in series [2] (0 month), 99.676; in series [2] (1 month) it was 99.655; in series [2] (2 months) it was 99.651; in series [2] (3 months) it was 99.652; in series [2] (4 months), 99.651. For the same compound, the Major peak in series [2] (5 months) stood at 99.649; in series [2] (6 months) it was 99.643; in series [3] (1 month), 99.693; in series [3] (2 months) it was 99.694; in series [3] (3 months), 99.690; in series [3] (4 months), 99.692. Also, the Major peak was 99.691 in series [3] (5 months) and 99.692 in series [3] (6 months).

Take `CCCCCCOC(=O)/N=C(/N)c1ccc(NCc2nc3cc(C(=O)N(CCC(=O)OCC)c4ccccn4)ccc3n2C)cc1.CS(=O)(=O)O` [Crystal form M, 3-[(2-{[4-(hexaoxycarbonylamino-imino-methyl)-phenylamino]-methyl}-1-methyl-1H-benzimidazole-5-carbonyl)-pyridine-2-yl-amino-]-ethyl propionate-mesylate]: the Major peak in series [1] (0 month) was found to be 99.711; in series [1] (1 month), 99.632; in series [1] (2 months) it was 99.614; in series [1] (3 months), 99.595; in series [1] (4 months), 99.582; in series [1] (5 months), 99.574. Moreover, the Major peak in series [1] (6 months) turned out to be 99.541; in series [2] (0 month) it was 99.654; in series [2] (1 month), 99.650; in series [2] (2 months), 99.648; in series [2] (3 months), 99.651; in series [2] (4 months) it was 99.649. The Major peak in series [2] (5 months) amounted to 99.649; in series [2] (6 months) it was 99.648; in series [3] (1 month), 99.722; in series [3] (2 months), 99.728; in series [3] (3 months) it was 99.737; in series [3] (4 months), 99.737. Besides, the results for the Major peak in series [3] (5 months) and in series [3] (6 months) were 99.739 and 99.737, respectively. In addition, the “chemical stability compared with crystal form I, crystal form II and the semihydrate crystal form” value in series [1] is given as “better chemical stability”. Also, the storage stability entry in series [2] is “can be stored stable for a long time”. In addition, in series [4], the “crystal form of samples after stability tests” value is listed as “not changed”.
